Type in all cases: in vivo, rabbit
The subject of assay [1] is WHHL rabbits. In words: Incidence of xanthochromia in finger joints (Example 1, 32 weeks). The following applies: oral, CS-866 1 mg/kg, troglitazone 25 mg/kg, alone or combined. Here is the method:
(§1) A certain amount of an agent was administered orally for 32 weeks to 2-3 months old WHHL rabbits, Watanabe genetically hyperlipemic rabbits: supra (Biochimica et Biophysica Acta), etc., in groups of 4 to 7 animals each. Incidentally, food consumption was restricted to 120 g/day per animal. Blood samples were collected immediately before administration of the agent and 4, 8, 12, 16, 20, 24, 28 and 32 weeks after the start of administration to measure total cholesterol levels (mg/dl). There were no changes observed in any of the dose groups as compared with the control group to which no agents were administered. The test animals were subjected to autopsy in the 32nd week to investigate the surface area of aortic lesions (%) and the incidence of xanthochromia in finger joints (%).

The test system of assay [2] is WHHL rabbits. Nature of the assay: Arterial sclerosis progress inhibitory effect: surface area of aortic lesions (Example 2, 31 weeks). The following applies: oral, CS-866 0.5 mg/kg, pioglitazone 20 mg/kg, BRL-49653 2.5 mg/kg, alone or combined, autopsy in 31st week. Here is the method: A certain amount of an agent was administered orally for 31 weeks to 2-3 months old WHHL rabbits, Watanabe genetically hyperlipemic rabbits: described supra (Biochimica et Biophysica Acta), etc., in groups of 5 to 7 animals each. Incidentally, food consumption was restricted to 100 g/day per animal. Blood samples were collected immediately before administration of the agent and 8, 16, 24 and 31 weeks after the start of administration to measure total cholesterol levels (mg/dl). There were no changes observed in any of the dose groups as compared with the control group to which no agents were administered. In addition, the test animals were subjected to autopsy in the 31st week to investigate the surface area of aortic lesions (%) and the incidence of xanthochromia in finger joints.

Assay [3] has as its system WHHL rabbits. In words: Arterial sclerosis progress inhibitory effect: surface area of aortic lesions (Example 1, 32 weeks). The conditions noted are these: oral, CS-866 1 mg/kg, troglitazone 25 mg/kg, alone or combined, autopsy in 32nd week. How it is done: as §1

For `CCCc1nc(C(C)(C)O)c(C(=O)OCc2oc(=O)oc2C)n1Cc1ccc(-c2ccccc2-c2nnn[nH]2)cc1` [CS-866, (5-methyl-2-oxo-1,3-dioxolen-4-yl)methyl 4-(1-hydroxy-1-methylethyl)-2-propyl-1-[2′-(1H-tetrazol-5-yl)biphenyl-4-ylmethyl]imidazole-5-carboxylate], in assay [1], the “Xanthochromia incidence (%) Forelimbs” value is 100%, the “Xanthochromia incidence (%) Hindlimbs” value was 100% and the “Xanthochromia incidence (%) Overall” value is reported as 100%. Besides, in assay [2], the “Lesion surface area (%) Abdominal region” value amounted to 32 ± 8%, the “Lesion surface area (%) Arcuate region” value was found to be 66 ± 5%, the “Lesion surface area (%) Overall” value was found to be 44 ± 7% and the “Lesion surface area (%) Thoracic part” value amounted to 41 ± 10%. Also, in assay [3], the “Lesion surface area (%) Abdominal region” value was determined as 19%, the “Lesion surface area (%) Arcuate region” value amounted to 68%, the “Lesion surface area (%) Overall” value turned out to be 34% and the “Lesion surface area (%) Thoracic part” value worked out at 26%.

As for `CN(CCOc1ccc(CC2SC(=O)NC2=O)cc1)c1ccccn1` (centres unmarked) [BRL-49653, 5-[4-[2-[N-methyl-N-(pyridin-2-yl)amino]ethoxy]phenylmethyl]-2,4-thiazolidinedione], in assay [2], the “Lesion surface area (%) Abdominal region” value is recorded as 29 ± 4%, the “Lesion surface area (%) Arcuate region” value is on record as 83 ± 2%, the “Lesion surface area (%) Overall” value was found to be 52 ± 5% and the “Lesion surface area (%) Thoracic part” value came to 54 ± 12%.

Regarding `Cc1c(C)c2c(c(C)c1O)CCC(C)(COc1ccc(CC3SC(=O)NC3=O)cc1)O2` (centres unmarked) [Troglitazone, 5-[4-(6-hydroxy-2,5,7,8-tetramethylchroman-2-ylmethoxy)benzyl]-2,4-thiazolidinedione], in assay [1], the “Xanthochromia incidence (%) Forelimbs” value amounted to 93%, the “Xanthochromia incidence (%) Hindlimbs” value worked out at 86% and the “Xanthochromia incidence (%) Overall” value is recorded as 89%. Besides, in assay [3], the “Lesion surface area (%) Abdominal region” value was found to be 32%, the “Lesion surface area (%) Arcuate region” value amounted to 80%, the “Lesion surface area (%) Overall” value is recorded as 54% and the “Lesion surface area (%) Thoracic part” value came out at 57%.

Consider `CCc1ccc(CCOc2ccc(CC3SC(=O)NC3=O)cc2)nc1` (centres unmarked) [Pioglitazone, 5-[4-[2-(5-ethyl-pyridin-2-yl)ethoxy]phenylmethyl]-2,4-thiazolidinedione], for which, in assay [2], the “Lesion surface area (%) Abdominal region” value was 32 ± 6%, the “Lesion surface area (%) Arcuate region” value was 65 ± 6%, the “Lesion surface area (%) Overall” value is given as 52 ± 8% and the “Lesion surface area (%) Thoracic part” value is on record as 62 ± 12%.

The values above are taken from patent publication US6610682B2, “Pharmaceutical compositions and methods for the treatment of arteriosclerosis” (Sankyo Company, Limited, priority 1996, dated 2003).
